The source of these data is US9168259B2 (GRÜNENTHAL GMBH, priority 2010, dated 2015).

pEC50: −log10 of the molar value.

The experiment has as its target T1, KCNQ2/3 channels (Homo sapiens, UniProt O43525+O43526).
T1 construct: expressed in transfected cells
As to the kind of experiment: Fluorescence assay using a voltage sensitive dye (fluorimetry). It is filed as cell-based. As to conditions: CHO-K1 cells expressing KCNQ2/3; for Emax: CHO-K1, plateau effect relative to saturated retigabine (50 μM) = 100%, negative values = antagonistic, read-out: Fluorimetry % efficacy (retigabine = 100%); for pEC50: IC50 where % efficacy is negative, read-out: Fluorimetry EC50/IC50.

T1 sequence (O43526 whole entry): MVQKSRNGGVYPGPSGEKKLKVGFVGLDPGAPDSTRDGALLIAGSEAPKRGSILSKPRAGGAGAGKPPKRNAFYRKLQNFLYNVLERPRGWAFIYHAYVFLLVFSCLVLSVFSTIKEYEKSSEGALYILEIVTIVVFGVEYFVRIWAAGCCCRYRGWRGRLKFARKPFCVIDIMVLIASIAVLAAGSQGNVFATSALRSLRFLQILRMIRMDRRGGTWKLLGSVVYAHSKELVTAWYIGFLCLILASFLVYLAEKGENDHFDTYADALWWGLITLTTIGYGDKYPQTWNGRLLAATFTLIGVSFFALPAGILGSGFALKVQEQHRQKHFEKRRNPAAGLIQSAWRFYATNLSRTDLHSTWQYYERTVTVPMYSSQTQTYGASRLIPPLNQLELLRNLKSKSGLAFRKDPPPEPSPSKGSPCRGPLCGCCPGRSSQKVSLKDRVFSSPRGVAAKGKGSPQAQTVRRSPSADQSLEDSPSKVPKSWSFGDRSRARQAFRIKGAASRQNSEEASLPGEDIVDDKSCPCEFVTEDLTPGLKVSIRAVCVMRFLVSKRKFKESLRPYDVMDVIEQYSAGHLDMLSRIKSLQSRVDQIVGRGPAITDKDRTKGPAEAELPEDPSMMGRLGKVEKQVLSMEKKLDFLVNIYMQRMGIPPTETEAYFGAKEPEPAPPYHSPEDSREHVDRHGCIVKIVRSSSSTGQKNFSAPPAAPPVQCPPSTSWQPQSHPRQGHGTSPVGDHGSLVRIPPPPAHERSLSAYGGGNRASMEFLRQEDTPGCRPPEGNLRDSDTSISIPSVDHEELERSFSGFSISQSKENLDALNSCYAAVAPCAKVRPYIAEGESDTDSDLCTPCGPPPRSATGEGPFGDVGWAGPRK
T1 sequence (O43525 whole entry): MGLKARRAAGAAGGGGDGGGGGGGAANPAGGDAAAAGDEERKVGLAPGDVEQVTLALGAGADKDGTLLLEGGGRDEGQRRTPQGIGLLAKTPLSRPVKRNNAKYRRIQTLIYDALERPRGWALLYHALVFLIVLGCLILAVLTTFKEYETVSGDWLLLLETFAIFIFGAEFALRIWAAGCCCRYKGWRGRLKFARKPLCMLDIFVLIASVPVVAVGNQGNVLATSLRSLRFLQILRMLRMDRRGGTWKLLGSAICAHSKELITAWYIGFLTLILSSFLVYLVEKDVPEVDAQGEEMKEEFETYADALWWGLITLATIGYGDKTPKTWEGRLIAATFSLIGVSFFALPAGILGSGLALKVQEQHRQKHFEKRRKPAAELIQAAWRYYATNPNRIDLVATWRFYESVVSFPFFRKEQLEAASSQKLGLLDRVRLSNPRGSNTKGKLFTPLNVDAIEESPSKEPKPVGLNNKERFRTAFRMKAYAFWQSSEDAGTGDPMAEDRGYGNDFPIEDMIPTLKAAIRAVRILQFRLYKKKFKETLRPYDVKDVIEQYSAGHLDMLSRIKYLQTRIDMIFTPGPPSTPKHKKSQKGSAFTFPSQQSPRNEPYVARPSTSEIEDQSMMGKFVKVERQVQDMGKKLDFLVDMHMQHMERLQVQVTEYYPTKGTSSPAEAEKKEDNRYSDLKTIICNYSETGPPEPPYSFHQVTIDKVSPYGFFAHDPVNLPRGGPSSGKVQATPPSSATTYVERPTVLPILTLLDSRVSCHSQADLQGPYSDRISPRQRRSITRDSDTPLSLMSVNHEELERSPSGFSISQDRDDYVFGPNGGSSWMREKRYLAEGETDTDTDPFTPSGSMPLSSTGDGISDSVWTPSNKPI

Take `CCCC1COCCN1c1cc(C)c(C(=O)NCc2cccc(F)c2)c(SCC)n1` (stereo not drawn) [Example 213, 2-Ethylsulfanyl-N-[(3-fluorophenyl)-methyl]-4-methyl-6-(3-propyl-morpholin-4-yl)-pyridine-3-carboxylic acid amide]: the Emax was 131% and the pEC50 is 7.31.
`COc1nc(N2CCOC[C@H]2C)cc(C)c1C(=O)NCc1cccc(F)c1` [Example 214, N-[(3-Fluorophenyl)-methyl]-2-methoxy-4-methyl-6-[(3R)-3-methyl-morpholin-4-yl]-pyridine-3-carboxylic acid amide]: the Emax is 194% and the pEC50 was 6.65.
On the same counts, the results for `COc1nc(N2CCOC[C@H]2C)cc(C)c1C(=O)NCc1ccc(Cl)cc1` [Example 215, N-[(4-Chlorophenyl)-methyl]-2-methoxy-4-methyl-6-[(3R)-3-methyl-morpholin-4-yl]-pyridine-3-carboxylic acid amide] are 191% and 6.83.
On to `CCC(C)c1nc(N2CCOCC2)cc(C)c1C(=O)NCc1cccc(F)c1` (stereo not drawn) [Example 216, N-[(3-Fluorophenyl)-methyl]-4-methyl-2-(1-methyl-propyl)-6-morpholin-4-yl-pyridine-3-carboxylic acid amide], for which the Emax came to 181% and the pEC50 was 7.16.
For `CCCCCCNC(=O)c1c(C)cc(N2CCOCC2)nc1SCC` [Example 217, 2-Ethylsulfanyl-N-hexyl-4-methyl-6-morpholin-4-yl-pyridine-3-carboxylic acid amide] the same measures were 181% and 6.39.
On to `CCSc1nc(N(C)C2CCOC2)cc(C)c1C(=O)NCCCC(C)(C)C` (stereo not drawn) [Example 218, N-(4,4-Dimethyl-pentyl)-2-ethylsulfanyl-4-methyl-6-(methyl-tetrahydro-furan-3-yl-amino)-pyridine-3-carboxylic acid amide], for which the Emax stood at 194% and the pEC50 was 6.57.
For `CCSc1nc(N2CCOC(C)C2)cc(C)c1C(=O)NCCCC(C)(C)C` (stereo not drawn) [Example 219, N-(4,4-Dimethyl-pentyl)-2-ethylsulfanyl-4-methyl-6-(2-methyl-morpholin-4-yl)-pyridine-3-carboxylic acid amide] the same measures were 212% and 7.04.
Take `Cc1cc(N2CCOCC2)nc(C(C)(C)C)c1C(=O)NCCCC(C)(C)C` [Example 220, 2-tert-Butyl-N-(4,4-dimethyl-pentyl)-4-methyl-6-morpholin-4-yl-pyridine-3-carboxylic acid amide]: the Emax was 166% and the pEC50 was 6.17.
On the same counts, the results for `CCC(C)c1nc(N2CCOCC2)cc(C)c1C(=O)NCCCC(C)(C)C` (stereo not drawn) [Example 221, N-(4,4-Dimethyl-pentyl)-4-methyl-2-(1-methyl-propyl)-6-morpholin-4-yl-pyridine-3-carboxylic acid amide] are 259% and 7.66.
For `CCSc1nc(N2CCC3(COC3)C2)cc(C)c1C(=O)NCc1cccc(F)c1` [Example 222, 2-Ethylsulfanyl-N-[(3-fluorophenyl)-methyl]-4-methyl-6-(2-oxa-6-azaspiro[3.4]octan-6-yl)-pyridine-3-carboxylic acid amide] the same measures were 56% and 5.14.
On the same counts, the results for `CCSc1nc(N2CCO[C@@H](COC)C2)cc(C)c1C(=O)NCc1cccc(F)c1` [Example 223, 2-Ethylsulfanyl-N-[(3-fluorophenyl)-methyl]-6-[(2R)-2-(methoxymethyl)-morpholin-4-yl]-4-methyl-pyridine-3-carboxylic acid amide] are 137% and 5.44.
Take `CCSc1nc(N2CCO[C@H](COC)C2)cc(C)c1C(=O)NCc1cccc(F)c1` [Example 224, 2-Ethylsulfanyl-N-[(3-fluorophenyl)-methyl]-6-[(2S)-2-(methoxymethyl)-morpholin-4-yl]-4-methyl-pyridine-3-carboxylic acid amide]: the Emax amounted to 136% and the pEC50 was 6.16.
For `CCSc1nc(N2CCOC[C@H]2C)cc(C)c1C(=O)NCc1ccc(F)c(F)c1` [Example 225, N-[(3,4-Difluoro-phenyl)-methyl]-2-ethylsulfanyl-4-methyl-6-[(3R)-3-methyl-morpholin-4-yl]-pyridine-3-carboxylic acid amide] the same measures were 173% and 7.15.
`COc1nc(N2CCOC[C@H]2C)cc(C)c1C(=O)NCc1ccc(F)c(F)c1` [Example 226, N-[(3,4-Difluoro-phenyl)-methyl]-2-methoxy-4-methyl-6-[(3R)-3-methyl-morpholin-4-yl]-pyridine-3-carboxylic acid amide]: the Emax was determined as 186% and the pEC50 is 6.89.
Regarding `CCSc1nc(N2CCOCC2)cc(C)c1C(=O)NCCC(O)c1ccccc1` (stereo not drawn) [Example 227, 2-Ethylsulfanyl-N-(3-hydroxy-3-phenyl-propyl)-4-methyl-6-morpholin-4-yl-pyridine-3-carboxylic acid amide], the Emax worked out at 165% and the pEC50 is 5.38.
On the same counts, the results for `CCSc1nc(N2CCOCC2)cc(C)c1C(=O)NCC(O)CC(C)C` (stereo not drawn) [Example 228, 2-Ethylsulfanyl-N-(2-hydroxy-4-methyl-pentyl)-4-methyl-6-morpholin-4-yl-pyridine-3-carboxylic acid amide] are 180% and 5.61.
Consider `CCSc1nc(N2CCOC(CCOC)C2)cc(C)c1C(=O)NCc1cccc(F)c1` (stereo not drawn) [Example 229, 2-Ethylsulfanyl-N-[(3-fluorophenyl)-methyl]-6-[2-(2-methoxy-ethyl)-morpholin-4-yl]-4-methyl-pyridine-3-carboxylic acid amide], for which the Emax was found to be 132% and the pEC50 was 6.14.
For `CCSc1nc(N2CCOCC2)cc(C)c1C(=O)NCCCC(C)(C)CO` [Example 230, 2-Ethylsulfanyl-N-(5-hydroxy-4,4-dimethyl-pentyl)-4-methyl-6-morpholin-4-yl-pyridine-3-carboxylic acid amide] the same measures were 131% and 4.89.
On the same counts, the results for `CCSc1nc(N2CCOCC2)cc(C)c1C(=O)NCc1cccc(S(C)(=O)=O)c1` [Example 231, 2-Ethylsulfanyl-4-methyl-N-[(3-methylsulfonyl-phenyl)-methyl]-6-morpholin-4-yl-pyridine-3-carboxylic acid amide] are 61% and 4.98.
Turning to `CCSc1nc(N2CCc3nc(C(F)(F)F)ccc3C2)cc(C)c1C(=O)NCc1cccc(F)c1` [Example 232, 2-Ethylsulfanyl-N-[(3-fluorophenyl)-methyl]-4-methyl-6-[2-(trifluoromethyl)-5,6,7,8-tetrahydro-[1,6]naphthyridin-6-yl]-pyridine-3-carboxylic acid amide], the Emax worked out at 131% and the pEC50 is 6.95.
On the same counts, the results for `CCSc1nc(N2CCOC[C@H]2C)cc(C)c1C(=O)NCc1cc(F)cc(F)c1` [Example 233, N-[(3,5-Difluoro-phenyl)-methyl]-2-ethylsulfanyl-4-methyl-6-[(3R)-3-methyl-morpholin-4-yl]-pyridine-3-carboxylic acid amide] are 196% and 7.15.
